{"source": "patent US4737496A", "about": "“1,3,4,16b-tetra hydro-2H,10H-indolo[2,1-c]pyrazino-[1,2-a][1,4]benzodiazepines useful as serotonin-2 receptor antagonists” (Ciba-Geigy Corporation, priority 1986, dated 1988)", "key": {"serotonin-2 receptor [1]": {"molecular_target": "T1, serotonin-2 receptor (Rattus norvegicus, UniProt P14842)", "T1 sequence (P14842 whole entry)": "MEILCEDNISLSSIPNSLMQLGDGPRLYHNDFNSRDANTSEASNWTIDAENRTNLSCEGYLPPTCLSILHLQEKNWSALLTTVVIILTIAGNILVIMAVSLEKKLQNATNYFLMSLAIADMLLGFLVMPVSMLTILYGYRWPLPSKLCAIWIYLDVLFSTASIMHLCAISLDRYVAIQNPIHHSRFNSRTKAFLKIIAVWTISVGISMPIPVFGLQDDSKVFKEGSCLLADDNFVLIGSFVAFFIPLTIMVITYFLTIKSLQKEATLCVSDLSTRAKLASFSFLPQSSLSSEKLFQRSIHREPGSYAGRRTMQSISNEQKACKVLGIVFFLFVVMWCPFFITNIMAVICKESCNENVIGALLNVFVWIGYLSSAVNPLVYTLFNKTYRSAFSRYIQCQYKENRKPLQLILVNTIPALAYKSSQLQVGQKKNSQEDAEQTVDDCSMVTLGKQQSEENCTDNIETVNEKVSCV", "test": "in vivo displacement of 3H-spiperone binding in rat brain", "set-up": "serotonin-2 receptors in rat brain; from tissue; host or cells: rat brain, in vivo", "details": "ip", "method": "In vivo, the compounds according to the present application displace the binding of ^3 H-spiperone to serotonin-2 receptors in rat brain. Illustrative of the invention, the compound of example 1 displaces the binding of ^3 H-spiperone with an ED50 value of about 2 mg/Kg i.p."}, "serotonin-2 receptor [2]": {"molecular_target": "T1, serotonin-2 receptor", "test": "5-hydroxytryptophane-induced head twitch test", "format": "in vivo", "set-up": "membrane preparations of frontal/parietal cortex from male Sprague-Dawley rats; from tissue; host or cells: frontal/parietal cortex membranes, male Sprague-Dawley rat", "details": "po, 5-HTP induced head twitch, read-out: effective dose in the head twitch test", "method": "The head twitch test for assessing central nervous system serotonin-2 receptor antagonism in the rat is described in Neuropharmacology 16, 663 (1977) and in J. Pharmacol. Exp. Ther. 228, 133 (1984). The test is carried out as follows:\nMale Wistar rats (120-180 g) are fasted for 18 hours prior to testing but allowed water ad libitum. All animals are pretreated with the peripheral decarboxylase inhibitor alpha-methyl-DOPA hydrazine (carbidopa, 25 mg/kg i.p., 4.0 ml/kg) followed 30 minutes later by 5-hydroxy-tryptophane (5-HTP 100 mg/kg s.c., 4.0 ml/kg). Ninety minutes after receiving 5-HTP, the rats are placed individually in plexiglass observation cages and the frequency of head twitches for each animal is counted over a 10 minute observation period. The test compound or vehicle is administered at either 0.5 hour at 1.0 ml/kg i.p. or at 1, 2 or 4 hours at 10 ml/kg p.o. prior to the observation period. ED50 values are determined by probit analysis."}, "serotonin-2 receptor [3]": {"molecular_target": "T1, serotonin-2 receptor", "test": "biochemical", "method": "The serotonin-2 receptor (also named 5-hydroxytryptamine-2 or 5HT-2 receptor) binding properties are determined in vitro by measuring the ability of said compounds to inhibit the specific binding of ^3 H-ketanserin, in membrane preparations of frontal/parietal cortex from male Sprague-Dawley rats essentially as described by Battaglia et al. in Life Sciences 33, 2011 (1983). IC50 values, representing the concentration of compound required to displace 50% of ^3 H-ketanserin, are determined by log-logit analysis of the specific binding data."}}, "note": "pIC50: −log10 of the molar value.", "data": [{"smiles": "COC(=O)c1c2n(c3ccccc13)Cc1ccccc1N1CCN(C)CC21", "note": "(stereo not drawn) [Example 1, methyl 1,3,4,16b-tetrahydro-2-methyl-2H,10H-indolo[2,1-c]pyrazino[1,2-a][1,4]benzodiazepine-16-carboxylate]", "values": [{"measurement": "ED50", "setting": "serotonin-2 receptor [1]", "result": "~2", "unit": "mg/kg"}, {"measurement": "ED50", "setting": "serotonin-2 receptor [2]", "result": "~3", "unit": "mg/kg"}, {"measurement": "pIC50", "setting": "serotonin-2 receptor [3]", "result": "~8.40"}]}]}
